Reference: article PMC10535864, “Novel Aminopyrimidine-2,4-diones, 2-Thiopyrimidine-4-ones, and 6-Arylpteridines as Dual-Target Inhibitors of BRD4/PLK1: Design, Synthesis, Cytotoxicity, and Computational Studies” (Pharmaceuticals, 2023)

Key:
Assay type in all cases: cell-based
[1] = tested on: MDA-MB-231 breast cancer cells; assay: MTT cytotoxicity assay, MDA-MB-231; settings: MDA-MB-231, MTT; for IC50 / viability at 0.312 µM / viability at 0.625 µM / viability at 1.25 µM / viability at 2.5 µM / viability at 5 µM / viability at 10 µM: Homo sapiens; for IC50: mean of three independent experiments ± SD, read-out: IC50 Value MDA-MB-231
Description: (§1) All newly synthetic compounds were tested for cytotoxicity using a six-dose MTT colorimetric assay on three cancer cell lines; namely, breast cancer cells (MDA-MB-231), colorectal adenocarcinoma cells (HT-29) and renal cancer cells (U-937). […] However, renal cancer cells (U-937) were discovered to be the least sensitive.
(§2) Using a six-dose MTT colorimetric assay, all new synthetic compounds were tested for cytotoxicity against three cancer cell lines: MDA-MB-231 breast cancer cells, HT-29 colorectal adenocarcinoma cells, and U-937 renal cancer cells. […] These cell lines were supplied by ATCC (American Type Culture Collection) via the Holding company for biological products and vaccines (VACSERA, Cairo, Egypt). The reference control used was Methotrexate. Detailed descriptions of the MTT colorimetric assay’s protocol can be found in the Supplementary file.
(§3) 1.1.In-vitro cytotoxicity screening
(§4) Using a six-dose MTT colorimetric assay, allnew synthetic compounds were tested for cytotoxicity against three cancer cell lines: MDA-MB-231 breast cancer cells,HT-29 colorectal adenocarcinoma cells, and U-937 renal […]
(§5) The cell lines were supplied by ATCC (American Type Culture Collection). The reference control used was Methotrexate. The cytotoxic activities of the examined compounds were quantified by inoculating a 96-well tissue culture plate with 1 X 10^5 cells / mL (100 uL/well) and incubating it at 37°C for 24 hours to develop a complete monolayer sheet. After forming a confluent sheet of cells, the growth medium was decanted from 96-well microtiter plates, and the cell monolayer was washed twice with wash media. Two-fold dilutions of tested samples were made in RPMI medium with 2% serum (maintenance medium), and 0.1 mL of each dilution was tested in different wells, with three wells serving as controls and receiving only maintenance medium. Following that, the plate was incubated at 37°C and examined. Cells were investigated for any physical signs of toxicity, such as partial or complete monolayer loss, rounding, shrinkage, or cell granulation. MTT solution was prepared (5mg/ml in PBS) (BIO BASIC CANADA INC), and 20 uL MTT solution was added to each well. After 5 minutes on a shaking table at150 rpm to thoroughly mix the MTT into the media, it was incubated (37°C, 5% CO2) for 4 hours to allow the MTT to be metabolized. Formazan (MTT metabolic product) was resuspended in 200 uL DMSO and shaken at 150 rpm for 5 minutes to thoroughly mix the formazan into the solvent. The optical density was measured at 560 nm, and the background was subtracted at 620 nm. Finally, the IC50 of the test compound in comparison to the reference was calculated using the GraphPad Prism software. […]

[2] = tested on: HT-29 colorectal adenocarcinoma cells; assay: MTT cytotoxicity assay, HT-29; settings: MTT; for Toxicity % / viability at 0.312 µM / viability at 0.625 µM / viability at 1.25 µM / viability at 2.5 µM / viability at 5 µM / viability at 10 µM: HT29; for viability at 0.312 µM / viability at 0.625 µM / viability at 1.25 µM / viability at 2.5 µM / viability at 5 µM / viability at 10 µM / IC50: Homo sapiens, HT-29; for IC50: mean of three independent experiments ± SD, read-out: IC50 Value HT-29
Description: as §1, §2, §3, §4, §5

[3] = MTT cytotoxicity assay, U-937; settings: Homo sapiens, U-937, U937, MTT;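 also: Six-dose MTT colorimetric assay on cell monolayers, formazan absorbance read at 560 nm with 620 nm background removed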
U-937 renal cancer cells = assay: MTT cytotoxicity assay, U-937; settings: MTT; for IC50: Homo sapiens, U-937, mean of three independent experiments ± SD, read-out: IC50 Value U-937; for Toxicity %: U937;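 as to all read-outs here: Six-dose MTT colorimetric assay on cell monolayers, formazan absorbance read at 560 nm with 620 nm background removed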

SMILES | IC50 [1] [µM] | viability at 0.312 µM ([1]; 0.312 uM) [%] | viability at 0.625 µM ([1]; 0.625 uM) [%] | viability at 1.25 µM ([1]; 1.25 uM) [%] | viability at 2.5 µM ([1]; 2.5 uM) [%] | viability at 5 µM ([1]; 5 uM) [%] | viability at 10 µM ([1]; 10 uM) [%] | Toxicity % ([1]; 0.312 uM) [%] | Toxicity % ([1]; 0.625 uM) [%] | Toxicity % ([1]; 1.25 uM) [%] | Toxicity % ([1]; 2.5 uM) [%] | Toxicity % ([1]; 5 uM) [%] | Toxicity % ([1]; 10 uM) [%] | Toxicity % ([2]; 0.312 uM) [%] | Toxicity % ([2]; 0.625 uM) [%] | Toxicity % ([2]; 1.25 uM) [%] | Toxicity % ([2]; 2.5 uM) [%] | Toxicity % ([2]; 5 uM) [%] | Toxicity % ([2]; 10 uM) [%] | viability at 0.312 µM ([2]; 0.312 uM) [%] | also measured
CCn1c(N)c(/N=C(/CBr)c2ccc([N+](=O)[O-])cc2)c(=O)[nH]c1=O [Compound 5a, (E)-6-Amino-5-((2-bromo-1-(4-nitrophenyl)ethylidene)amino)-1-ethylpyrimidine-2,4(1H,3H)-dione] | 3.24 ± 0.03 | 99.7 | 99.6 | 91.2 | 53 | 23.8 | 4.21 | 0.266 | 0.4433 | 8.821 | 46.99 | 76.2 | 95.79 | 0.1292 | 0.2584 | 5.556 | 50.3 | 83.29 | 97.46 | 99.9 | viability at 0.625 µM ([2]; 0.625 uM): 99.7%; viability at 1.25 µM ([2]; 1.25 uM): 94.4%; viability at 2.5 µM ([2]; 2.5 uM): 49.7%; viability at 5 µM ([2]; 5 uM): 16.7%; viability at 10 µM ([2]; 10 uM): 2.54%; IC50 [2]: 3.09 ± 0.01 µM; viability at 0.312 µM [3]: 99.6%; viability at 0.625 µM [3]: 98.9%; viability at 1.25 µM [3]: 99.6%; viability at 2.5 µM [3]: 89.7%; viability at 5 µM [3]: 55.1%; viability at 10 µM [3]: 12.7%; IC50 (U-937 renal cancer cells): 6.08 ± 0.11 µM; Toxicity % (U-937 renal cancer cells; 0.312 uM): 0.4357%; Toxicity % (U-937 renal cancer cells; 0.625 uM): 1.144%; Toxicity % (U-937 renal cancer cells; 1.25 uM): 0.4357%; Toxicity % (U-937 renal cancer cells; 2.5 uM): 10.29%; Toxicity % (U-937 renal cancer cells; 5 uM): 44.93%; Toxicity % (U-937 renal cancer cells; 10 uM): 87.31%
Nc1c(/N=C(/CBr)c2ccc([N+](=O)[O-])cc2)c(=O)[nH]c(=O)n1Cc1ccccc1 [Compound 5b, (E)-6-Amino-1-benzyl-5-((2-bromo-1-(4-nitrophenyl)ethylidene)amino)pyrimidine-2,4(1H,3H)-dione] | 2.37 ± 0.06 | 99.4 | 99.4 | 84.7 | 45.8 | 23.2 | 8.07 | 0.6206 | 0.5762 | 15.34 | 54.21 | 76.77 | 91.93 | 0 | 0.1292 | 6.891 | 27.39 | 74.68 | 88.24 | 100 | viability at 0.625 µM ([2]; 0.625 uM): 99.9%; viability at 1.25 µM ([2]; 1.25 uM): 93.1%; viability at 2.5 µM ([2]; 2.5 uM): 72.6%; viability at 5 µM ([2]; 5 uM): 25.3%; viability at 10 µM ([2]; 10 uM): 11.8%; IC50 [2]: 3.66 ± 0.05 µM; viability at 0.312 µM [3]: 99.9%; viability at 0.625 µM [3]: 99.9%; viability at 1.25 µM [3]: 99.6%; viability at 2.5 µM [3]: 99.1%; viability at 5 µM [3]: 50.3%; viability at 10 µM [3]: 16.3%; IC50 (U-937 renal cancer cells): 6.29 ± 0.26 µM; Toxicity % (U-937 renal cancer cells; 0.312 uM): 0.05447%; Toxicity % (U-937 renal cancer cells; 0.625 uM): 0.1089%; Toxicity % (U-937 renal cancer cells; 1.25 uM): 0.3813%; Toxicity % (U-937 renal cancer cells; 2.5 uM): 0.8715%; Toxicity % (U-937 renal cancer cells; 5 uM): 49.73%; Toxicity % (U-937 renal cancer cells; 10 uM): 83.71%
Nc1c(/N=C(/CBr)c2ccc([N+](=O)[O-])cc2)c(=O)[nH]c(=O)n1Cc1ccccc1Cl [Compound 5c, (E)-6-Amino-5-((2-bromo-1-(4-nitrophenyl)ethylidene)amino)-1-(2-chlorobenzyl) pyrimidine-2,4(1H,3H)-dione] | 3.28 ± 0.04 | 99.4 | 98.4 | 96.1 | 62.4 | 14.9 | 5.54 | 0.6206 | 1.551 | 3.901 | 37.63 | 85.06 | 94.46 | 0.1292 | 0.2153 | 6.417 | 59.99 | 93.84 | 94.36 | 99.9 | viability at 0.625 µM ([2]; 0.625 uM): 99.8%; viability at 1.25 µM ([2]; 1.25 uM): 93.6%; viability at 2.5 µM ([2]; 2.5 uM): 40%; viability at 5 µM ([2]; 5 uM): 6.16%; viability at 10 µM ([2]; 10 uM): 5.64%; IC50 [2]: 2.24 ± 0.04 µM; viability at 0.312 µM [3]: 99.7%; viability at 0.625 µM [3]: 99.5%; viability at 1.25 µM [3]: 99.7%; viability at 2.5 µM [3]: 99.3%; viability at 5 µM [3]: 48.2%; viability at 10 µM [3]: 14.3%; IC50 (U-937 renal cancer cells): 6.17 ± 0.15 µM; Toxicity % (U-937 renal cancer cells; 0.312 uM): 0.3268%; Toxicity % (U-937 renal cancer cells; 0.625 uM): 0.4902%; Toxicity % (U-937 renal cancer cells; 1.25 uM): 0.2723%; Toxicity % (U-937 renal cancer cells; 2.5 uM): 0.6536%; Toxicity % (U-937 renal cancer cells; 5 uM): 51.8%; Toxicity % (U-937 renal cancer cells; 10 uM): 85.73%
Cn1c(SCC(=O)c2ccc([N+](=O)[O-])cc2)nc(=O)c(/N=C(/CBr)c2ccc([N+](=O)[O-])cc2)c1N [Compound 8, (E)-6-Amino-5-((2-bromo-1-(4-nitrophenyl)ethylidene)amino)-1-methyl-2-((2-(4-nitrophenyl)-2-oxoethyl)thio)pyrimidin-4(1H)-one] | 2.31 ± 0.06 | 97.6 | 95.3 | 83.8 | 43.7 | 35.9 | 35.4 | 2.394 | 4.743 | 16.18 | 56.29 | 64.1 | 64.58 | 0.08613 | 0.1292 | 0.5599 | 0.3876 | 50.34 | 77.91 | 99.9 | viability at 0.625 µM ([2]; 0.625 uM): 99.9%; viability at 1.25 µM ([2]; 1.25 uM): 99.4%; viability at 2.5 µM ([2]; 2.5 uM): 99.6%; viability at 5 µM ([2]; 5 uM): 49.7%; viability at 10 µM ([2]; 10 uM): 22.1%; IC50 [2]: 6.48 ± 0.08 µM; viability at 0.312 µM [3]: 99.6%; viability at 0.625 µM [3]: 99.3%; viability at 1.25 µM [3]: 99.9%; viability at 2.5 µM [3]: 99.8%; viability at 5 µM [3]: 79.6%; viability at 10 µM [3]: 27.6%; IC50 (U-937 renal cancer cells): 7.77 ± 0.04 µM; Toxicity % (U-937 renal cancer cells; 0.312 uM): 0.3813%; Toxicity % (U-937 renal cancer cells; 0.625 uM): 0.6536%; Toxicity % (U-937 renal cancer cells; 1.25 uM): 0.05447%; Toxicity % (U-937 renal cancer cells; 2.5 uM): 0.2179%; Toxicity % (U-937 renal cancer cells; 5 uM): 20.42%; Toxicity % (U-937 renal cancer cells; 10 uM): 72.39%
